# From patent publication US20060018827A1, “Positron therapy of inflammation, infection and disease” (priority 2004, published 2006)
# Read-outs that look alike come from different tables or passages of the source.
# What was measured:
# xenografted Notch tumor = assay: Treatment of Notch tumor-bearing mice with ^18F-FDG; format: in vivo, mouse; conditions: Notch tumor-bearing nude mice, 2.5 mCi i.p.
# Method: Notch cell line. Mouse mammary gland cell line 5505 was derived from mammary tumors arising in transgenic mice which express an activated form of Notch 4 from the mouse mammary tumor virus long terminal repeat (MMTV-LTR) promoter/enhancer (Fitzgerald et al. 2000). This cell line is further referred to herein as Notch cells. The Notch cells were cultured in DMEM supplemented with 10% FCS, 10% NCTC-109, 1% non-essential amino acids, […] D-glucose and 1% penicillin-streptomycin.
# Animals. All procedures involving mice were conducted in accordance with the National Institutes of Health regulations concerning the use and care of experimental animals. The study of mice was approved by the Albert Einstein College of Medicine (AECOM) Animal Use Committee. Transgenic mice expressing the polyoma middle T antigen (PyMT) in the mammary epithelium under the control of mouse mammary tumor virus (MMTV) long terminal repeat were provided by Dr. W. J. Muller (McMaster University, Ontario, Canada) and then bred at AECOM. At the age of 10 weeks these mice have multiple mammary tumors 0.15-0.17 cm in diameter. In mice older than 18 weeks the tumors are more than 1 cm in diameter. MMTV-NeuT mice (Muller et al. 1988), which carry erbB-2 (Neu), one of the better known human breast cancer oncogenes, were purchased from Jackson Laboratories. MMTV-NeuT mice were obtained as retired breeders and some of them developed mammary tumors at the age of 5 months, whereas others remained-tumor free until 6-7 months of age. C3H/B6 female mice lacking the PyMT transgene were used as healthy controls in therapy experiments. […]
# Treatment of Notch tumor-bearing mice with ^18F-FDG. […] Animals were monitored for their vital signs and survival for 1 month. Their tumors were measured every 3 days with calipers in three perpendicular planes and the product of the three measurements was multiplied by 0.5 and expressed in cm^3. The growth rate for tumors in cm^3/day was calculated using the formula: […]/number of days survived. […]
# [1] = 70 Kg person, cited from earlier work
# [2] = Human Maximum Tolerated Dose (MTD) of ^18F-FDG, organ dosimetry calculation; conditions: for 5 Ci FDG Organ dose / 7.5 Ci FDG Organ dose / MTD FDG (calculated MTD of ^18F-FDG for the organ): 70 Kg person
# Method: The dose-limiting organ for therapy with ^18F-FDG is the bone marrow. The activity of ^18F-FDG that will deliver doses of 200 rad to the red marrow (less than 5% damage in 5 years) (Early and Sodee, 1995) and also 300 rad were calculated using the Medical Internal Radionuclide Dosimetry formalism. A dose of 300 rad was considered because it causes acceptable and manageable hematologic toxicity in selected patients (Early and Sodee, 1995). The subsequent doses delivered to ^18F-FDG-avid tumors were calculated.
# Human Maximum Tolerated Dose (MTD) of ^18F-FDG. Table 1 indicates the radiation dose (Column 2) to each organ (Column 1) from 1mCi of ^18F-FDG for a 70 Kg person. The tolerated radiation dose of each organ (5% complications in 5 years) is described in Table 1, Column 3. The MTD of ^18F-FDG for each organ is described in Table 1, Column 4. The smallest value in this column is 4.88 Ci, which is the MTD of ^18F-FDG for a 70 Kg person, delivering 200 cGy to the ovaries. This is the critical organ for female patients; however, female patients with metastatic cancer have usually undergone chemotherapy causing ovarian failure or may choose to accept ovarian failure as a side effect of therapy. If ovarian function is not a consideration, then the critical organ is the bone marrow for both male and female patients. A dose of 5.00 Ci of ^18F-FDG would deliver 200 cGy to the bone marrow of a 70 Kg person.
smiles,measurement,setting,value
"O=C[C@H]([18F])[C@@H](O)[C@H](O)[C@H](O)CO [^18F-FDG, ^18F-2-deoxy-2-fluoro-D-glucose]",mean (95% CI) time to death,xenografted Notch tumor,18 (13-23) days
same,survival period,xenografted Notch tumor; longest survival,up to 30 days
same,median tumor growth rate,xenografted Notch tumor; therapy group,0.020 cm^3/day
same,Radiation dose to organ from 1 mCi ^18F-FDG,[1]; Bone marrow,0.04 cGy/mCi
same,Radiation dose to organ from 1 mCi ^18F-FDG,[1]; Brain,0.17 cGy/mCi
same,Radiation dose to organ from 1 mCi ^18F-FDG,[1]; Heart wall,0.25 cGy/mCi
same,Radiation dose to organ from 1 mCi ^18F-FDG,[1]; Kidneys,0.078 cGy/mCi
same,Radiation dose to organ from 1 mCi ^18F-FDG,[1]; Liver,0.088 cGy/mCi
same,Radiation dose to organ from 1 mCi ^18F-FDG,[1]; Lungs,0.056 cGy/mCi
same,Radiation dose to organ from 1 mCi ^18F-FDG,[1]; Ovaries,0.041 cGy/mCi
same,Radiation dose to organ from 1 mCi ^18F-FDG,[1]; Testes,0.041 cGy/mCi
same,Radiation dose to organ from 1 mCi ^18F-FDG,[1]; Urinary bladder,0.27 cGy/mCi
same,5 Ci FDG Organ dose,[2]; Bone marrow,200 cGy
same,7.5 Ci FDG Organ dose,[2]; Bone marrow,300 cGy
same,5 Ci FDG Organ dose,[2]; Brain,850 cGy
same,7.5 Ci FDG Organ dose,[2]; Brain,1275 cGy
same,MTD FDG (calculated MTD of ^18F-FDG for the organ),"[2]; Brain, organ MTD 4500 cGy (5% complications in 5 years)",26.47 Ci
same,5 Ci FDG Organ dose,[2]; Heart wall,1250 cGy
same,7.5 Ci FDG Organ dose,[2]; Heart wall,1875 cGy
same,MTD FDG (calculated MTD of ^18F-FDG for the organ),"[2]; Heart wall, organ MTD 4000 cGy (5% complications in 5 years)",16.00 Ci
same,5 Ci FDG Organ dose,[2]; Kidneys,390 cGy
same,7.5 Ci FDG Organ dose,[2]; Kidneys,585 cGy
same,MTD FDG (calculated MTD of ^18F-FDG for the organ),"[2]; Kidneys, organ MTD 2300 cGy (5% complications in 5 years)",29.49 Ci
same,5 Ci FDG Organ dose,[2]; Liver,440 cGy
same,7.5 Ci FDG Organ dose,[2]; Liver,660 cGy
same,MTD FDG (calculated MTD of ^18F-FDG for the organ),"[2]; Liver, organ MTD 3000 cGy (5% complications in 5 years)",34.09 Ci
same,5 Ci FDG Organ dose,[2]; Lungs,280 cGy
same,7.5 Ci FDG Organ dose,[2]; Lungs,420 cGy
same,MTD FDG (calculated MTD of ^18F-FDG for the organ),"[2]; Lungs, organ MTD 6500 cGy (5% complications in 5 years)",116.07 Ci
same,5 Ci FDG Organ dose,[2]; Ovaries,205 cGy
same,7.5 Ci FDG Organ dose,[2]; Ovaries,308 cGy
same,MTD FDG (calculated MTD of ^18F-FDG for the organ),"[2]; Ovaries, organ MTD 200 cGy (5% complications in 5 years)",4.88 Ci
same,5 Ci FDG Organ dose,[2]; Testes,205 cGy
same,7.5 Ci FDG Organ dose,[2]; Testes,308 cGy
same,MTD FDG (calculated MTD of ^18F-FDG for the organ),"[2]; Testes, organ MTD 500 cGy (5% complications in 5 years)",12.20 Ci
same,5 Ci FDG Organ dose,[2]; Urinary bladder,1350 cGy
same,7.5 Ci FDG Organ dose,[2]; Urinary bladder,2025 cGy
same,MTD FDG (calculated MTD of ^18F-FDG for the organ),"[2]; Urinary bladder, organ MTD 6500 cGy (5% complications in 5 years)",24.07 Ci
same,dose to the brain,[2]; administered dose of 7.50 Ci,1275 rad
